# Measured values: patent US6987114B1, “Antiviral pyrimidinedione derivatives and process for the preparation thereof” (Samjin Pharmaceutical Co., Ltd, priority 1999, dated 2006)
# Where two headings read alike, the source gives them in different places.
# Experiments:
# [1] = test system: HIV; experiment: microbe, parasite or virus in culture; assay type: cell-based
# Summary of the method: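 MT-4 cells (2.5×10^5 cells/ml) infected with 1000 CCID50 HIV, added at once to compound dilutions, incubated 4 or 5 days at 37° C. Protection from virus-induced cytopathic effect read by MTT; cytotoxicity from MTT viability of mock-infected cells in parallel.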
# [2] = test system: mock-infected MT-4 cells; experiment: Cytotoxicity based on viability of mock-infected host cells (MTT method); assay type: cell-based; conditions: mock-infected MT-4 cells, MTT method, 4 or 5 days at 37° C.
# Summary of the method: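 Mock-infected MT-4 cells at 2.5×10^5 cells/ml were exposed to various concentrations of test compound, run in parallel with HIV-infected (1000 CCID50) cultures. After 4 or 5 days at 37° C., host-cell viability was read by MTT.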
# [3] = Human immunodeficiency virus 1, MT4, read-out: ED50
# [4] = Human immunodeficiency virus 1, MT4, HIV-infected MT-4 cells, MTT method, 4 or 5 days at 37° C., read-out: ED50 (the source's name)
"EC50 [1, 4] [µg/mL]",Compound,melting point [°C],"EC50 [1, 3] [µg/mL]",CD50 [2] [µg/mL]
–,"CCc1c(C(=O)c2cc(C)cc(C)c2)n(Cc2nc3ccccc3o2)c(=O)[nH]c1=O [Example 149, 1-(Benzoxazol-2-ylmethyl)-5-ethyl-6-(3,5-dimethyl-benzoyl)-2,4-pyrimidinedione]",218 to 220,0.029,6.78
0.018,"COC(=O)c1ccoc1Cn1c(Sc2cc(C)cc(C)c2)c(C(C)C)c(=O)[nH]c1=O [Example 152, 1-(3-Methoxycarbonyl-2-furanylmethyl)-5-isopropyl-6-(3,5-dimethylphenyl)thio-2,4-pyrimidinedione]",135 to 137,–,9.61
0.278,"CCc1c(Oc2cc(C)cc(C)c2)n(Cc2occc2C(=O)OC)c(=O)[nH]c1=O [Example 153, 1-(3-Methoxycarbonyl-2-furanylmethyl)-5-ethyl-6-(3,5-dimethylphenoxy)-2,4-pyrimidinedione]",150 to 152,–,12.22
0.074,"COC(=O)c1ccoc1Cn1c(Oc2cc(C)cc(C)c2)c(C(C)C)c(=O)[nH]c1=O [Example 154, 1-(3-Methoxycarbonyl-2-furanylmethyl)-5-isopropyl-6-(3,5-dimethylphenoxy)-2,4-pyrimidinedione]",157 to 159,–,10.11
0.017,"CCc1c(C(=O)c2cc(C)cc(C)c2)n(Cc2occc2C(=O)OC)c(=O)[nH]c1=O [Example 155, 1-(3-Methoxycarbonyl-2-furanylmethyl)-5-ethyl-6-(3,5-dimethyl-benzoyl)-2,4-pyrimidinedione]",204 to 206,–,13.45
0.014,"COC(=O)c1ccoc1Cn1c(C(=O)c2cc(C)cc(C)c2)c(C(C)C)c(=O)[nH]c1=O [Example 156, 1-(3-Methoxycarbonyl-2-furanylmethyl)-5-isopropyl-6-(3,5-dimethyl-benzoyl)-2,4-pyrimidinedione]",180 to 183,–,10.92
–,"CCc1c(Oc2cc(C)cc(C)c2)n(CC(C)=O)c(=O)[nH]c1=O [Example 157, 1-(Acetonyl)-5-ethyl-6-(3,5-dimethylphenoxy)-2,4-pyrimidinedione]",162 to 165,0.0119,3.6
–,"CC(=O)Cn1c(Oc2cc(C)cc(C)c2)c(C(C)C)c(=O)[nH]c1=O [Example 158, 1-(Acetonyl)-5-isopropyl-6-(3,5-dimethylphenoxy)-2,4-pyrimidinedione]",181 to 183,0.0043,>100.00
–,"CCc1c(C(=O)c2cc(C)cc(C)c2)n(CC(C)=O)c(=O)[nH]c1=O [Example 159, 1-(Acetonyl)-5-ethyl-6-(3,5-dimethylbenzoyl)-2,4-pyrimidinedione]",186 to 189,0.0018,11.8
–,"CC(=O)Cn1c(C(=O)c2cc(C)cc(C)c2)c(C(C)C)c(=O)[nH]c1=O [Example 160, 1-(Acetonyl)-5-isopropyl-6-(3,5-dimethylbenzoyl)-2,4-pyrimidinedione]",181 to 183,0.0005,14.0
–,"CCC(=O)Cn1c(Oc2cc(C)cc(C)c2)c(CC)c(=O)[nH]c1=O [Example 161, 1-(2-Butanon-1-yl)-5-ethyl-6-(3,5-dimethylphenoxy)-2,4-pyrimidinedione]",116 to 118,0.018,48.0
–,"CCC(=O)Cn1c(Oc2cc(C)cc(C)c2)c(C(C)C)c(=O)[nH]c1=O [Example 162, 1-(2-Butanon-1-yl)-5-isopropyl-6-(3,5-dimethylphenoxy)-2,4-pyrimidinedione]",135 to 138,0.0159,41.40
–,"CCC(=O)Cn1c(C(=O)c2cc(C)cc(C)c2)c(C(C)C)c(=O)[nH]c1=O [Example 164, 1-(2-Butanon-1-yl)-5-isopropyl-6-(3,5-dimethylbenzoyl)-2,4-pyrimidinedione]",174 to 176,0.0026,20.58
